Data: publication PMC9961272, “Ca^2+-Dependent and -Independent Calmodulin Binding to the Cytoplasmic Loop of Gap Junction Connexins” (International Journal of Molecular Sciences, 2023)
“Also recorded” adds a separate entry of the source.

Assays:
[1] = system: gap junction coupling in HUVEC; test: Multiparametric scrape loading-dye transfer assay (Lucifer Yellow spread); type: cell-based, human; settings: for LY spread in the absence of ionomycin stimulation: peptide 7 µM and 17.9 µM, 8 min pre-treatment + 8 min assay; for LY spread in the absence of ionomycin stimulation / LY spread after ionomycin pre-treatment in the presence of peptide: Ca2+-containing media; for LY spread after ionomycin pre-treatment in the presence of peptide: peptide 7 μM and 17.9 μM, 8 min + 8 min; for LY spread after scratch wounding: 60 min pre-treatment, PMA 100 nM or 18ßGRR 100 µM, 15 min post-scratch
Protocol: (§1) The assay is described in detail in [48]; it is an adaption of the traditional fluorescence microscopy-based scrape loading dye transfer (sl-dt) technique. Briefly, HUVEC in 24 well trays were rinsed into +Ca+Mg-PBS. The solution was then replaced with fresh +Ca+Mg-PBS supplemented with Lucifer Yellow (LY; 1 mg/mL), propidium iodide (PI; 15 μM) and Hoechst 33,342 (90 μM) (dye transfer buffer). Immediately after addition of the dye transfer buffer, 3 parallel cuts in the cell monolayer in the central part of each well in the 24 wells were made using a micro scalpel knife with a flat edge stainless steel blade. The cells were then incubated at 37 °C for 8 or 15 min, as specified, before being washed twice with +Ca+Mg-PBS to remove the dye transfer buffer and then fixed in 3% PFA in PBS. Fresh dye transfer buffer was used for each experiment and the plates were stored in the dark at 4 °C.
For quantitative analysis of dye transfer and cell viability, images were acquired from 2 to 3 regions within each cut (6–9 measurements per well) using an EVOS M5000 microscope (Invitrogen, Waltham, MA, USA) equipped with a 10 × 0.3 NA air objective and EVOS LED light cubes for bright field imaging, FITC, RedX and DAPI. Images were acquired sequentially and exported to ImageJ for processing.
Phorbol 12-myristate 13-acetate (PMA) or 18-β-glycyrrhetinic acid (18BGRR) was made up in dimethysulphoxide (DMSO) to a 10 mM or 50 mM stock, respectively, and diluted into HGM to a final concentration of 100 nM or 100 µM, respectively. Cells were incubated in PMA or 18BGRR acid containing solution for 60 min at 37 °C. The PMA or 18BGRR solution was then carefully removed and the cells were washed once in +Ca+Mg-PBS. The PBS was then replaced with the dye transfer buffer (see above) and immediately 3 parallel cuts were made in the cell monolayer in the central part of each well using a micro scalpel knife with a flat edge stainless steel blade. For each experiment drug treatments were carried out in triplicate wells each with 3 cuts per well. Cells were then processed as described above. For analysis of the Ca^2+ dependency of gap junction coupling, HUVEC were incubated in either +Ca+Mg-PBS (+Ca) or -Ca+Mg +0.2 mM EGTA (-Ca) containing PBS and stimulated with vehicle (0.001% DMSO), or 2 μM ionomycin for 8 min. Cells were then transferred to dye transfer buffer made using +Ca or −Ca PBS, supplemented with vehicle or 2 μM ionomycin, and 3 parallel cuts were made in cell monolayers in each well. Cells were incubated for a further 8 min prior to fixation. […] A stock solution of 3.6 mM was made to generate working concentrations of 6–18 µM.
Data analysis was carried out in the open-source-based software program Fiji ImageJ. A custom-made macro (Cut_Analyzer.ijm) published in the Supplementary Materials to [48] was used for the automated quantitation of gap junction intercellular communication using images acquired for the LY signal. Analysis of total cell number (Hoechst channel) and cell viability (propidium iodide channel) was made using custom made macros ([48] and Supplementary Methods).

HUVEC [2] = test: Cell viability (PI+ cells) in dye transfer assay; type: cell-based; settings: PMA 100 nM or 18ßGRR 100 µM, 60 min; % of PI+ cells
Protocol: as §1, with “The cells were then incubated at 37 °C for 8 or 15 min, as specified, before being washed twice with +Ca+Mg-PBS to remove the dye transfer buffer and then fixed in 3% PFA in PBS. Fresh dye transfer buffer was used for each experiment and the plates were stored in the dark at 4 °C.” left out
Data analysis was carried out in the open-source-based software program Fiji ImageJ. A custom-made macro (Cut_Analyzer.ijm) published in the Supplementary Materials to [48] was used for the automated quantitation of gap junction intercellular communication using images acquired for the LY signal. […]
Analysis of cell number. To determine the number of cells per field of view we counted the number of Hoechst stained nuclei using a simple macro (Nuclei count.ijm) recorded […]
Counting cell nuclei using Fiji ImageJ. […] Images were then converted to a mask, a Watershed applied to identify and separate overlapping nuclei and objects counted using the Analyze particles function. […]
Analysis of cell viability. […] Cell viability was expressed as the fraction of cells negative for PI. […]

TA-CaM = TA-CaM (Homo sapiens, UniProt P0DP23); settings: Ca2+ titration of TA-CaM alone or with peptide
Protocol: The binding curves were fitted to the Hill equation to obtain Kd and Hill coefficient values (n) (Table 2).
The fluorescence was corrected for dilution and [Ca^2+] concentration was calculated using Maxchelator software. The data were fitted to the Hill equation with specific binding (y = Bmax∗x^n/(Kd^n + x^n)) using GraphPad Prism 9.

apo-DA-CaM = apo-DA-CaM (Homo sapiens, UniProt P0DP23, T111C/T35C); test: Stopped-flow association and dissociation kinetics with apo-DA-CaM (with and without 15% TFE); settings: 500 nM DA-CaM with 10 µM mTrp, 5 mM EGTA, mixed with 300 µM CaM, 20 °C
Protocol: We were interested to see if we can detect apo-CaM binding to Cx CL2 peptides using DA-CaM, the conformation of which is insensitive to [Ca^2+] changes, but which indicates changes in the distance between the N- and C-lobe with high sensitivity.
The kinetics of Ca^2+/DA-CaM and DA-CaM interactions with Cx CL2 peptides was measured using a TgK Scientific KinetAsyst™ double-mixing stopped-flow apparatus (TgK Scientific Ltd., Bradford-on-Avon, UK) in single mixing mode. The fluorescence was excited at 340 nm and the emission was detected by a photomultiplier tube with a long pass filter (>400 nm). […] All concentrations given are those in the mixing chamber. Data shown are averages of 3 to 5 repeats. All experiments were carried out at 20 °C. Data were analysed using Kinetic Studio software (TgK Scientific Ltd., Bradford-on-Avon, UK).

CaM = CaM binding signals of Cx32 CT peptide
HUVEC [3] = test: Fura-2 epifluorescence imaging of [Ca2+]i; type: cell-based, human; settings: ionomycin 2 µM, fura-2 loaded HUVEC
Protocol: HUVEC were grown on 24 mm square uncoated glass coverslips in growth medium. For Fura-2 loading, the cells were transferred into Hanks solution (140 mM NaCl, 5 mM KCl, 1.8 mM CaCl2, 2 mM MgCl2, 10 mM glucose, 10 mM HEPES-NaOH pH 7.4) supplemented with 2.5 µM Fura-2AM (Molecular Probes, Eugene, Oregon, USA) diluted from a stock solution of 5 mM Fura-2AM in DMSO with 2.0% Pluoronic F-127. Cells were incubated at room temperature in the dark for 20 min before being transferred into fresh Hanks solution and further maintained in the dark at RT until use. Cells were transferred to the stage of an Olympus IX71 inverted fluorescence microscope and maintained at 32–34 °C. The imaging system comprised an excitation monochromator (Optoscan, Cairn Research), U-Plan-Apo ×100 1.35 NA objective and an Ixon EMCCD camera (Andor). Fura-2 was illuminated sequentially with 355 ± 5 nm and 380 ± 5 nm light and wavelength switching synchronised with image capture using WinFluor software (Dr John Dempster, Strathclyde University). The EMCCD camera was operated in frame transfer mode at full gain and cooled to −70 °C. Full frame (512 by 512 pixels) images were acquired at 30 frames/s. Ionomycin was applied by droplet application.

“N-[myr]-RRKEQKTGHAVRAIGRE-amide [control peptide]” was tested, and the “LY spread in the absence of ionomycin stimulation” value [1] was “no significant difference in LY spread” and the “LY spread after ionomycin pre-treatment in the presence of peptide” value ([1]; ionomycin 2 µM) was “significantly reduced LY spread”.
CC1(C)[C@@H](O)CC[C@]2(C)[C@H]3C(=O)C=C4[C@@H]5C[C@@](C)(C(=O)O)CC[C@]5(C)CC[C@@]4(C)[C@]3(C)CC[C@@H]12 [18ßGRR, 18-β-glycyrrhetinic acid] was tested, and the “Cell viability following drug treatments” value (HUVEC [2]) was “No evidence for decreased cell viability” and the “LY spread after scratch wounding” value [1] was “significantly reduced LY spread”.
CCCCCCCCCCCCCC(=O)O[C@@H]1[C@@H](C)[C@@]2(O)[C@@H](C=C(CO)C[C@]3(O)C(=O)C(C)=C[C@@H]23)[C@@H]2C(C)(C)[C@]12OC(C)=O [PMA, 12-phorbol 13-myristate acetate] was tested, and the “Cell viability following drug treatments” value (HUVEC [2]) was “No evidence for decreased cell viability” and the “LY spread after scratch wounding” value [1] was “significantly reduced LY spread”.
For N-[myr]-RRKWQKTGHAVRAIGRL-amide [mTrp], the “Hill Coefficient n TA-CaM” value (TA-CaM) was 1.3 ± 0.1, the “Dissociation from apo-DA-CaM, fast phase” value (apo-DA-CaM) was 130 s⁻¹ and the “Dissociation from apo-DA-CaM, slow phase” value (apo-DA-CaM) was 0.9 s⁻¹. For the same molecule, the “LY spread in the absence of ionomycin stimulation” value [1] was “no significant difference in LY spread” and the “LY spread after ionomycin pre-treatment in the presence of peptide” value ([1]; ionomycin 2 µM) was “reduced the inhibition of LY spread; also recorded: prevented the Ca^2+-induced block”.
With EINKLLSEQDGSLKDILRRS [Cx32 CT peptide] the CaM binding signal (CaM) was “unable to detect any signals indicating CaM binding”.
With C[C@H](CCC(=O)O)C[C@H](C)C[C@H](C)C(=O)/C=C(\O)[C@H](C)C[C@H](C)C/C=C/[C@@H](C)[C@@H](O)[C@@H](C)[C@@H](O)C[C@@H]1CC[C@@](C)([C@H]2CC[C@@](C)([C@@H](C)O)O2)O1 [ionomycin] the “Change in [Ca^2+]i (fura-2 ratio)” value (HUVEC [3]) was “initial fast increase in [Ca^2+]i”, the “Effect on LY spread when external Ca^2+ omitted” value ([1]; ionomycin 2 µM, 8 min, external Ca2+ omitted) was “greatly reduced” and the “LY spread after scratch formation” value ([1]; ionomycin 2 µM, 8 min pre-treatment, external Ca2+ present, 8 min LY spread) was “significantly reduced the spread of LY; also recorded: completely blocked”.
